Data taken from US20230085307A1, “PYRIDAZINONE COMPOUND AND HERBICIDE” (NISSAN CHEMICAL CORPORATION, priority 2019, published 2023).

Legend:
lambsquarters [1] = test: Test Example 5: herbicidal effect by foliage application, plastic box (Table 20, symbol O); format: in vivo, lambsquarters (Chenopodium album); conditions: foliage application, 320 g/ha, evaluated three weeks after application
Summary of the method: (§1)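 Plants sown in sterilized diluvial soil and grown 14 days in a greenhouse at 25° C to 30° C, then sprayed on the foliage with the compound's emulsion diluted in water to a predetermined herbicide amount. Injury to weeds and crops scored three weeks after application on a visual rating scale.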

blackgrass [2] = test: Test Example 4: herbicidal effect by soil treatment (Table 19, symbol J); format: in vivo, blackgrass (Alopecurus myosuroides); conditions: amount of applied herbicide 320 g/ha
Summary of the method: (§2)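 Seeds were sown in sterilized diluvial soil and covered with about 1.5 cm of soil. An emulsion formulation diluted with water to a predetermined herbicide amount was sprayed evenly onto the soil surface. Plants grew in a greenhouse at 25° C. to 30° C., and the effect was scored three weeks after application using criteria from an earlier test.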

southern crabgrass [3] = test: Test Example 4: herbicidal effect by soil treatment (Table 19, symbol F); format: in vivo, southern crabgrass (Digitaria ciliaris); conditions: amount of applied herbicide 320 g/ha
Summary of the method: as §2

redroot pigweed [4] = test: Test Example 5: herbicidal effect by foliage application, plastic box (Table 20, symbol N); format: in vivo, redroot pigweed (Amaranthus retroflexus); conditions: foliage application, 320 g/ha, evaluated three weeks after application
Summary of the method: as §1

Italian ryegrass [5] = test: Test Example 4: herbicidal effect by soil treatment (Table 19, symbol K); format: in vivo, Italian ryegrass (Lolium multiflorum); conditions: amount of applied herbicide 320 g/ha
Summary of the method: as §2

barnyard grass [6] = test: Test Example 3: herbicidal effect by foliage application, Wagner pot (Table 18, symbol H); format: in vivo, barnyard grass (Echinochloa crus-galli); conditions: amount of applied herbicide 320 g/ha
Summary of the method: (§3)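 Plants were sown in alluvial soil held under 0.1–0.5 cm standing water and grown 14 days in a greenhouse at 25–30 °C. An emulsifiable formulation, water-diluted to the set dose, was then sprayed onto the foliage, and effects were scored three weeks later using previously defined criteria.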

windgrass [7] = test: Test Example 5: herbicidal effect by foliage application, plastic box (Table 20, symbol L); format: in vivo, windgrass (Apera spica-venti); conditions: foliage application, 320 g/ha, evaluated three weeks after application
Summary of the method: as §1

Italian ryegrass [8] = test: Test Example 5: herbicidal effect by foliage application, plastic box (Table 20, symbol K); format: in vivo, Italian ryegrass (Lolium multiflorum); conditions: foliage application, 320 g/ha, evaluated three weeks after application
Summary of the method: as §1

chickweed [9] = test: Test Example 4: herbicidal effect by soil treatment (Table 19, symbol P); format: in vivo, common chickweed (Stellaria media); conditions: amount of applied herbicide 320 g/ha
Summary of the method: as §2

Japanese bulrush = test: Test Example 1: herbicidal activity, application before weed generation under submerged conditions (Table 16, symbol B); format: in vivo, Japanese bulrush (Schoenoplectus juncoides); conditions: 320 g/ha applied herbicide
Summary of the method: (§4)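 Alluvial soil was flooded to 4 cm depth, weed seeds were sown mixed and 2.5-leaf rice seedlings were transplanted. On sowing day, the compound's emulsion, diluted in water to a set dose, was applied to the water surface. Plants grew at 25–30 °C and were scored 0–5 after three weeks.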

barnyard grass [10] = test: Test Example 4: herbicidal effect by soil treatment (Table 19, symbol H); format: in vivo, barnyard grass (Echinochloa crus-galli); conditions: amount of applied herbicide 320 g/ha
Summary of the method: as §2

chickweed [11] = test: Test Example 5: herbicidal effect by foliage application, plastic box (Table 20, symbol P); format: in vivo, common chickweed (Stellaria media); conditions: foliage application, 320 g/ha, evaluated three weeks after application
Summary of the method: as §1

windgrass [12] = test: Test Example 4: herbicidal effect by soil treatment (Table 19, symbol L); format: in vivo, windgrass (Apera spica-venti); conditions: amount of applied herbicide 320 g/ha
Summary of the method: as §2

barnyard grass [13] = test: Test Example 5: herbicidal effect by foliage application, plastic box (Table 20, symbol H); format: in vivo, barnyard grass (Echinochloa crus-galli); conditions: foliage application, 320 g/ha, evaluated three weeks after application
Summary of the method: as §1

velvetleaf [14] = test: Test Example 5: herbicidal effect by foliage application, plastic box (Table 20, symbol M); format: in vivo, velvetleaf (Abutilon theophrasti); conditions: foliage application, 320 g/ha, evaluated three weeks after application
Summary of the method: as §1

green foxtail [15] = test: Test Example 5: herbicidal effect by foliage application, plastic box (Table 20, symbol G); format: in vivo, green foxtail (Setaria viridis); conditions: foliage application, 320 g/ha, evaluated three weeks after application
Summary of the method: as §1

velvetleaf [16] = test: Test Example 4: herbicidal effect by soil treatment (Table 19, symbol M); format: in vivo, velvetleaf (Abutilon theophrasti); conditions: amount of applied herbicide 320 g/ha
Summary of the method: as §2

persian speedwell [17] = test: Test Example 4: herbicidal effect by soil treatment (Table 19, symbol R); format: in vivo, Persian speedwell (Veronica persica); conditions: amount of applied herbicide 320 g/ha
Summary of the method: as §2

wild oat [18] = test: Test Example 5: herbicidal effect by foliage application, plastic box (Table 20, symbol I); format: in vivo, wild oat (Avena fatua); conditions: foliage application, 320 g/ha, evaluated three weeks after application
Summary of the method: as §1

late watergrass = test: Test Example 1: herbicidal activity, application before weed generation under submerged conditions (Table 16, symbol A); format: in vivo, late watergrass (Echinochloa oryzicola); conditions: 320 g/ha applied herbicide
Summary of the method: as §4

southern crabgrass [19] = test: Test Example 5: herbicidal effect by foliage application, plastic box (Table 20, symbol F); format: in vivo, southern crabgrass (Digitaria ciliaris); conditions: foliage application, 320 g/ha, evaluated three weeks after application
Summary of the method: as §1

redroot pigweed [20] = test: Test Example 4: herbicidal effect by soil treatment (Table 19, symbol N); format: in vivo, redroot pigweed (Amaranthus retroflexus); conditions: amount of applied herbicide 320 g/ha
Summary of the method: as §2

wild oat [21] = test: Test Example 4: herbicidal effect by soil treatment (Table 19, symbol I); format: in vivo, wild oat (Avena fatua); conditions: amount of applied herbicide 320 g/ha
Summary of the method: as §2

persian speedwell [22] = test: Test Example 5: herbicidal effect by foliage application, plastic box (Table 20, symbol R); format: in vivo, Persian speedwell (Veronica persica); conditions: foliage application, 320 g/ha, evaluated three weeks after application
Summary of the method: as §1

green foxtail [23] = test: Test Example 4: herbicidal effect by soil treatment (Table 19, symbol G); format: in vivo, green foxtail (Setaria viridis); conditions: amount of applied herbicide 320 g/ha
Summary of the method: as §2

rice flat sedge = test: Test Example 3: herbicidal effect by foliage application, Wagner pot (Table 18, symbol E); format: in vivo, rice flat sedge (Cyperus iria); conditions: amount of applied herbicide 320 g/ha
Summary of the method: as §3

lambsquarters [24] = test: Test Example 4: herbicidal effect by soil treatment (Table 19, symbol O); format: in vivo, lambsquarters (Chenopodium album); conditions: amount of applied herbicide 320 g/ha
Summary of the method: as §2

oval-leafed pondweed = test: Test Example 1: herbicidal activity, application before weed generation under submerged conditions (Table 16, symbol C); format: in vivo, oval-leafed pondweed (Monochoria vaginalis); conditions: 320 g/ha applied herbicide
Summary of the method: as §4

blackgrass [25] = test: Test Example 5: herbicidal effect by foliage application, plastic box (Table 20, symbol J); format: in vivo, blackgrass (Alopecurus myosuroides); conditions: foliage application, 320 g/ha, evaluated three weeks after application
Summary of the method: as §1

Chinese sprangletop = test: Test Example 3: herbicidal effect by foliage application, Wagner pot (Table 18, symbol D); format: in vivo, chinese sprangletop (Leptochloa chinensis); conditions: amount of applied herbicide 320 g/ha
Summary of the method: as §3

SMILES | herbicidal effect on O: lambsquarters (criteria 0-5) (lambsquarters [1]) | herbicidal effect on J: blackgrass (blackgrass [2]) | herbicidal effect on F: southern crabgrass (southern crabgrass [3]) | herbicidal effect on N: redroot pigweed (criteria 0-5) (redroot pigweed [4]) | herbicidal effect on K: Italian ryegrass (Italian ryegrass [5]) | herbicidal effect on H: barnyard grass (barnyard grass [6]) | herbicidal effect on L: windgrass (criteria 0-5) (windgrass [7]) | herbicidal effect on K: Italian ryegrass (criteria 0-5) (Italian ryegrass [8]) | herbicidal effect on P: chickweed (chickweed [9]) | Herbicidal effect on B: Japanese bulrush (grade 0-5) (Japanese bulrush) | herbicidal effect on H: barnyard grass (barnyard grass [10]) | herbicidal effect on P: chickweed (criteria 0-5) (chickweed [11]) | herbicidal effect on L: windgrass (windgrass [12]) | herbicidal effect on H: barnyard grass (criteria 0-5) (barnyard grass [13]) | herbicidal effect on M: velvetleaf (criteria 0-5) (velvetleaf [14]) | herbicidal effect on G: green foxtail (criteria 0-5) (green foxtail [15]) | herbicidal effect on M: velvetleaf (velvetleaf [16]) | herbicidal effect on R: persian speedwell (persian speedwell [17]) | herbicidal effect on I: wild oat (criteria 0-5) (wild oat [18]) | Herbicidal effect on A: late watergrass (grade 0-5) (late watergrass) | also measured
CCCC(=O)Oc1c(C)nn(C)c(=O)c1-c1c(-c2ccccc2C(F)(F)F)sc2ccc(F)cc12 [2-230] | 4 (Herbicidal rate of 70% or more and less than 90%) | 0 (Herbicidal rate of 5% or less (almost no effect)) | 0 (Herbicidal rate of 5% or less (almost no effect)) | 5 (Herbicidal rate of 90% or more (almost completely withered)) | 2 (Herbicidal rate of 20% or more and less than 40%) | 4 (Herbicidal rate of 70% or more and less than 90%) | 3 (Herbicidal rate of 40% or more and less than 70%) | 3 (Herbicidal rate of 40% or more and less than 70%) | 3 (Herbicidal rate of 40% or more and less than 70%) | 0 (Herbicidal rate of 5% or less (almost no effect)) | 0 (Herbicidal rate of 5% or less (almost no effect)) | 5 (Herbicidal rate of 90% or more (almost completely withered)) | 0 (Herbicidal rate of 5% or less (almost no effect)) | 2 (Herbicidal rate of 20% or more and less than 40%) | 5 (Herbicidal rate of 90% or more (almost completely withered)) | 3 (Herbicidal rate of 40% or more and less than 70%) | 0 (Herbicidal rate of 5% or less (almost no effect)) | 0 (Herbicidal rate of 5% or less (almost no effect)) | 0 (Herbicidal rate of 5% or less (almost no effect)) | 3 (Herbicidal rate of 40% or more and less than 70%) | herbicidal effect on F: southern crabgrass (criteria 0-5) (southern crabgrass [19]): 0 (Herbicidal rate of 5% or less (almost no effect)); herbicidal effect on N: redroot pigweed (redroot pigweed [20]): 0 (Herbicidal rate of 5% or less (almost no effect)); herbicidal effect on I: wild oat (wild oat [21]): 0 (Herbicidal rate of 5% or less (almost no effect)); herbicidal effect on R: persian speedwell (criteria 0-5) (persian speedwell [22]): 5 (Herbicidal rate of 90% or more (almost completely withered)); herbicidal effect on G: green foxtail (green foxtail [23]): 0 (Herbicidal rate of 5% or less (almost no effect)); herbicidal effect on E: rice flat sedge (rice flat sedge): 5 (Herbicidal rate of 90% or more (almost completely withered)); herbicidal effect on O: lambsquarters (lambsquarters [24]): 0 (Herbicidal rate of 5% or less (almost no effect)); Herbicidal effect on C: oval-leafed pondweed (grade 0-5) (oval-leafed pondweed): 0 (Herbicidal rate of 5% or less (almost no effect)); herbicidal effect on J: blackgrass (criteria 0-5) (blackgrass [25]): 0 (Herbicidal rate of 5% or less (almost no effect)); herbicidal effect on D: Chinese sprangletop (Chinese sprangletop): 5 (Herbicidal rate of 90% or more (almost completely withered))
Cc1nn(C)c(=O)c(-c2c(-c3cccc(OC(F)(F)F)c3)sc3ccc(F)cc23)c1O [2-236] | 2 (Herbicidal rate of 20% or more and less than 40%) | 0 (Herbicidal rate of 5% or less (almost no effect)) | 0 (Herbicidal rate of 5% or less (almost no effect)) | 5 (Herbicidal rate of 90% or more (almost completely withered)) | 0 (Herbicidal rate of 5% or less (almost no effect)) | 4 (Herbicidal rate of 70% or more and less than 90%) | 1 (Herbicidal rate of 5% or more and less than 20%) | 0 (Herbicidal rate of 5% or less (almost no effect)) | 0 (Herbicidal rate of 5% or less (almost no effect)) | 3 (Herbicidal rate of 40% or more and less than 70%) | 0 (Herbicidal rate of 5% or less (almost no effect)) | 5 (Herbicidal rate of 90% or more (almost completely withered)) | 0 (Herbicidal rate of 5% or less (almost no effect)) | 0 (Herbicidal rate of 5% or less (almost no effect)) | 1 (Herbicidal rate of 5% or more and less than 20%) | 3 (Herbicidal rate of 40% or more and less than 70%) | 0 (Herbicidal rate of 5% or less (almost no effect)) | 0 (Herbicidal rate of 5% or less (almost no effect)) | 0 (Herbicidal rate of 5% or less (almost no effect)) | 3 (Herbicidal rate of 40% or more and less than 70%) | herbicidal effect on F: southern crabgrass (criteria 0-5) (southern crabgrass [19]): 0 (Herbicidal rate of 5% or less (almost no effect)); herbicidal effect on N: redroot pigweed (redroot pigweed [20]): 2 (Herbicidal rate of 20% or more and less than 40%); herbicidal effect on I: wild oat (wild oat [21]): 0 (Herbicidal rate of 5% or less (almost no effect)); herbicidal effect on R: persian speedwell (criteria 0-5) (persian speedwell [22]): 3 (Herbicidal rate of 40% or more and less than 70%); herbicidal effect on G: green foxtail (green foxtail [23]): 0 (Herbicidal rate of 5% or less (almost no effect)); herbicidal effect on E: rice flat sedge (rice flat sedge): 5 (Herbicidal rate of 90% or more (almost completely withered)); herbicidal effect on O: lambsquarters (lambsquarters [24]): 1 (Herbicidal rate of 5% or more and less than 20%); Herbicidal effect on C: oval-leafed pondweed (grade 0-5) (oval-leafed pondweed): 2 (Herbicidal rate of 20% or more and less than 40%); herbicidal effect on J: blackgrass (criteria 0-5) (blackgrass [25]): 0 (Herbicidal rate of 5% or less (almost no effect)); herbicidal effect on D: Chinese sprangletop (Chinese sprangletop): 3 (Herbicidal rate of 40% or more and less than 70%)
